Measurements published in ChEMBL document CHEMBL1201862, “PubChem BioAssay data set” (2004).
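48-hour exposure; five concentrations; linearly interpolated endpoints. The concentration for 50% growth inhibition is given as GI50.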 Activity calls are given as the source filed them. Cut-off read from the data, not from the text of the source: active = GI50 up to about 1.1 µM and inactive = higher.

How the values were obtained:
Assay in all cases: NCI-60 cell line screen, 48 h
OVCAR-3 = test system: OVCAR-3
786-0 = test system: 786-0
K562 = test system: K562
MOLT-4 = test system: MOLT-4
SW-620 = test system: SW-620
NCI-H23 = test system: NCI-H23
LOX IMVI = test system: LOX IMVI
MDA-MB-231 = test system: MDA-MB-231
SK-MEL-5 = test system: SK-MEL-5
MDA-N = test system: MDA-N
U-251 = test system: U-251
NCI-H226 = test system: NCI-H226
IGROV-1 = test system: IGROV-1
SF-295 = test system: SF-295
T47D = test system: T47D
M14 = test system: M14
SF-268 = test system: SF-268
NCI-H522 = test system: NCI-H522
Hs-578T = test system: Hs-578T
Malme-3M = test system: Malme-3M

| SMILES | GI50 (OVCAR-3) | GI50 (786-0) | GI50 (K562) | GI50 (MOLT-4) | GI50 (SW-620) | GI50 (NCI-H23) | GI50 (LOX IMVI) | GI50 (MDA-MB-231) | GI50 (SK-MEL-5) | GI50 (MDA-N) | GI50 (U-251) | GI50 (NCI-H226) | GI50 (IGROV-1) | GI50 (SF-295) | GI50 (T47D) | GI50 (M14) | GI50 (SF-268) | GI50 (NCI-H522) | GI50 (Hs-578T) | GI50 (Malme-3M) |
| --- | --- | --- | --- | --- | --- | --- | --- | --- | --- | --- | --- | --- | --- | --- | --- | --- | --- | --- | --- | --- |
| C=CCC1(O)CC(n2cc(C)c(=O)[nH]c2=O)OC1CO[Si](C)(C)C(C)(C)C (stereo not drawn) | 39 µM (inactive) | 44.1 µM (inactive) | 61.4 µM (inactive) | 57.3 µM (inactive) | 73.1 µM (inactive) | 44 µM (inactive) | 31.2 µM (inactive) | 64.6 µM (inactive) | 34.4 µM (inactive) | 51.6 µM (inactive) | 75.3 µM (inactive) | 49.5 µM (inactive) | 46.9 µM (inactive) | 42.9 µM (inactive) | 55.2 µM (inactive) | 46.7 µM (inactive) | – | – | – | – |
| COC(=O)c1ccccc1NCc1cc(O)ccc1O | 16.7 µM (inactive) | 17.7 µM (inactive) | 19.6 µM (inactive) | 16.1 µM (inactive) | 24.2 µM (inactive) | 32.9 µM (inactive) | 17.1 µM (inactive) | – | 19 µM (inactive) | 16.4 µM (inactive) | 20.1 µM (inactive) | 18 µM (inactive) | 25.9 µM (inactive) | 17.9 µM (inactive) | 15.9 µM (inactive) | 12.5 µM (inactive) | 27.9 µM (inactive) | 2.63 µM (inactive) | 19.7 µM (inactive) | 21.4 µM (inactive) |
| Cc1cc(S(=O)(=O)Nc2nc3ccsc3c(=O)n2N)c(S)cc1Cl | > 100 µM (inactive) | > 100 µM (inactive) | 86.9 µM (inactive) | 64.3 µM (inactive) | > 100 µM (inactive) | > 100 µM (inactive) | 78.9 µM (inactive) | 70.1 µM (inactive) | 56.9 µM (inactive) | > 100 µM (inactive) | 57.1 µM (inactive) | 34.6 µM (inactive) | > 100 µM (inactive) | 31.3 µM (inactive) | – | 68.7 µM (inactive) | 42.2 µM (inactive) | 44 µM (inactive) | – | 81.1 µM (inactive) |
| Oc1c(Cl)c(Cl)c(O)c2c1CCCC2 | – | 1.93 µM (inactive) | – | – | 1.99 µM (inactive) | 18.4 µM (inactive) | 3.48 µM (inactive) | 15.4 µM (inactive) | 13 µM (inactive) | 14.3 µM (inactive) | 17.5 µM (inactive) | 1.88 µM (inactive) | – | 18.5 µM (inactive) | – | 15.5 µM (inactive) | 11.6 µM (inactive) | 1.97 µM (inactive) | 14.6 µM (inactive) | 2.84 µM (inactive) |
| Cc1cc([C@H](C#N)c2nc3ccccc3[nH]2)nc(Cl)n1 | – | 54.5 µM (inactive) | > 100 µM (inactive) | > 100 µM (inactive) | 24.2 µM (inactive) | 30.1 µM (inactive) | 38.8 µM (inactive) | 59.3 µM (inactive) | 13.7 µM (inactive) | – | 23.6 µM (inactive) | 48 µM (inactive) | 54.5 µM (inactive) | > 100 µM (inactive) | 21.3 µM (inactive) | – | > 100 µM (inactive) | – | > 100 µM (inactive) | 77.3 µM (inactive) |
| CNCCCn1c2ccccc2c2c3c(c(-c4ccsc4)cc21)C(=O)NC3=O | 1.15 µM (inactive) | 0.259 µM (active) | 2.81 µM (inactive) | 1.54 µM (inactive) | 1.36 µM (inactive) | 0.0822 µM (active) | 1.33 µM (inactive) | 1.57 µM (inactive) | 0.735 µM (active) | – | 1.95 µM (inactive) | 2.37 µM (inactive) | 1.09 µM (active) | 0.0953 µM (active) | 2.09 µM (inactive) | 0.0408 µM (active) | 1.51 µM (inactive) | 1.66 µM (inactive) | 1.85 µM (inactive) | 0.163 µM (active) |
| CC(=O)[C@@]1(C)CC2(CCN(C)CC2)OC1C (stereo partly drawn) | > 100 µM (inactive) | > 100 µM (inactive) | > 100 µM (inactive) | > 100 µM (inactive) | > 100 µM (inactive) | > 100 µM (inactive) | > 100 µM (inactive) | > 100 µM (inactive) | > 100 µM (inactive) | > 100 µM (inactive) | > 100 µM (inactive) | > 100 µM (inactive) | > 100 µM (inactive) | > 100 µM (inactive) | > 100 µM (inactive) | > 100 µM (inactive) | > 100 µM (inactive) | > 100 µM (inactive) | – | > 100 µM (inactive) |
| CN(C)CC(CN(C)C)c1ccccn1 | > 100 µM (inactive) | > 100 µM (inactive) | > 100 µM (inactive) | > 100 µM (inactive) | > 100 µM (inactive) | > 100 µM (inactive) | > 100 µM (inactive) | > 100 µM (inactive) | > 100 µM (inactive) | > 100 µM (inactive) | > 100 µM (inactive) | > 100 µM (inactive) | > 100 µM (inactive) | > 100 µM (inactive) | – | > 100 µM (inactive) | > 100 µM (inactive) | > 100 µM (inactive) | > 100 µM (inactive) | > 100 µM (inactive) |
| O=C1Cc2cc3ccccc3nc2-c2ccccc2N1 | 73.1 µM (inactive) | 35.1 µM (inactive) | 39.9 µM (inactive) | > 100 µM (inactive) | > 100 µM (inactive) | > 100 µM (inactive) | 38.6 µM (inactive) | 20.5 µM (inactive) | > 100 µM (inactive) | – | 60 µM (inactive) | > 100 µM (inactive) | > 100 µM (inactive) | 85.5 µM (inactive) | 38.5 µM (inactive) | > 100 µM (inactive) | 81.5 µM (inactive) | 26.7 µM (inactive) | 28.8 µM (inactive) | > 100 µM (inactive) |
| O=Cc1ccc(-c2ccc(S(=O)(=O)O)cc2)o1 | > 100 µM (inactive) | > 100 µM (inactive) | > 100 µM (inactive) | > 100 µM (inactive) | > 100 µM (inactive) | > 100 µM (inactive) | > 100 µM (inactive) | > 100 µM (inactive) | > 100 µM (inactive) | > 100 µM (inactive) | > 100 µM (inactive) | > 100 µM (inactive) | > 100 µM (inactive) | > 100 µM (inactive) | – | > 100 µM (inactive) | > 100 µM (inactive) | > 100 µM (inactive) | > 100 µM (inactive) | > 100 µM (inactive) |
| CN1c2ccccc2C2c3c(O)ccc(O)c3C=C([N+](=O)[O-])C21 (stereo not drawn) | 0.0329 µM (active) | 0.519 µM (active) | 0.497 µM (active) | 0.424 µM (active) | 0.406 µM (active) | 1.69 µM (inactive) | 0.407 µM (active) | 0.656 µM (active) | 0.548 µM (active) | 0.69 µM (active) | 0.65 µM (active) | 16.2 µM (inactive) | 0.492 µM (active) | 2.53 µM (inactive) | 0.324 µM (active) | 0.513 µM (active) | 0.388 µM (active) | 0.0621 µM (active) | – | – |
| CCCCCCCCCc1cccc(N2C(N)=NC(N)=NC2(C)C)c1 | 0.0547 µM (active) | < 0.01 µM (active) | < 0.01 µM (active) | < 0.0273 µM (active) | < 0.01 µM (active) | < 0.01 µM (active) | < 0.01 µM (active) | 0.302 µM (active) | 0.0277 µM (active) | – | < 0.01 µM (active) | 1.26 µM (inactive) | < 0.01 µM (active) | 0.0148 µM (active) | 0.528 µM (active) | < 0.01 µM (active) | < 0.023 µM (active) | 0.0451 µM (active) | 1.04 µM (active) | 0.104 µM (active) |
| CC(C)Cn1cnc2c(Sc3c([N+](=O)[O-])ncn3C)nc(N)nc21 | > 35 µM (inactive) | > 61 µM (inactive) | > 47.3 µM (inactive) | > 42.2 µM (inactive) | > 61.5 µM (inactive) | > 65.5 µM (inactive) | > 59.8 µM (inactive) | 64.4 µM (inactive) | 15.2 µM (inactive) | 36.1 µM (inactive) | > 87.1 µM (inactive) | > 100 µM (inactive) | > 47.5 µM (inactive) | > 100 µM (inactive) | 30.4 µM (inactive) | > 52.2 µM (inactive) | > 100 µM (inactive) | 26.3 µM (inactive) | – | 30.8 µM (inactive) |
| O=C1OC2(c3ccccc31)c1cc(I)c(O)c(I)c1Oc1c2cc(I)c(O)c1I [ERYTHROSINE] | 5.46 µM (inactive) | > 100 µM (inactive) | > 100 µM (inactive) | > 100 µM (inactive) | > 100 µM (inactive) | 70 µM (inactive) | 76.6 µM (inactive) | > 100 µM (inactive) | > 100 µM (inactive) | – | 92.3 µM (inactive) | 37.4 µM (inactive) | > 100 µM (inactive) | > 100 µM (inactive) | > 100 µM (inactive) | 68.2 µM (inactive) | > 100 µM (inactive) | 19.3 µM (inactive) | 49.1 µM (inactive) | 64.1 µM (inactive) |
| N#Cc1cc2c(cc1Cl)Sc1nnc(Nc3ccccc3)n1S2(=O)=O | 1.64 µM (inactive) | 2.32 µM (inactive) | 1.44 µM (inactive) | 2.02 µM (inactive) | 1.52 µM (inactive) | 1.62 µM (inactive) | 1.73 µM (inactive) | 1.91 µM (inactive) | 2.43 µM (inactive) | – | 1.87 µM (inactive) | 2.24 µM (inactive) | 2.2 µM (inactive) | 3 µM (inactive) | 2.29 µM (inactive) | 2.17 µM (inactive) | 2.82 µM (inactive) | 1.89 µM (inactive) | 2.3 µM (inactive) | 2.19 µM (inactive) |
